For seven molecules, ΔTm results are on record in ChEMBL document CHEMBL1145498, “A systematic interaction map of validated kinase inhibitors with Ser/Thr kinases” (Proc Natl Acad Sci U S A, 2007).

Broadly, the ΔTm is the shift of the melting midpoint relative to a reference.

Assay [1] has as its target Serine/threonine-protein kinase 38 (Homo sapiens) (UniProt Q15208).
For assay [2], the target named is Calcium/calmodulin-dependent protein kinase kinase 2 (Homo sapiens, UniProt Q96RR4).
In assay [3] the target is Serine/threonine-protein kinase PLK1 (Homo sapiens) (UniProt P53350).
The target in assay [4] is Casein kinase I isoform gamma-3 (Homo sapiens) (UniProt Q9Y6M4).
Assay [5] deals with Dual specificity mitogen-activated protein kinase kinase 2 (Homo sapiens, UniProt P36507).
Assay [6] addresses Mitogen-activated protein kinase 3 (Homo sapiens, UniProt P27361).
The target of assay [7] is Serine/threonine-protein kinase RIO2 (Homo sapiens) (UniProt Q9BVS4).
Assay [8] concerns the target T1, Serine/threonine-protein kinase VRK3 (Homo sapiens) (UniProt Q8IV63).
T1 sequence (whole entry): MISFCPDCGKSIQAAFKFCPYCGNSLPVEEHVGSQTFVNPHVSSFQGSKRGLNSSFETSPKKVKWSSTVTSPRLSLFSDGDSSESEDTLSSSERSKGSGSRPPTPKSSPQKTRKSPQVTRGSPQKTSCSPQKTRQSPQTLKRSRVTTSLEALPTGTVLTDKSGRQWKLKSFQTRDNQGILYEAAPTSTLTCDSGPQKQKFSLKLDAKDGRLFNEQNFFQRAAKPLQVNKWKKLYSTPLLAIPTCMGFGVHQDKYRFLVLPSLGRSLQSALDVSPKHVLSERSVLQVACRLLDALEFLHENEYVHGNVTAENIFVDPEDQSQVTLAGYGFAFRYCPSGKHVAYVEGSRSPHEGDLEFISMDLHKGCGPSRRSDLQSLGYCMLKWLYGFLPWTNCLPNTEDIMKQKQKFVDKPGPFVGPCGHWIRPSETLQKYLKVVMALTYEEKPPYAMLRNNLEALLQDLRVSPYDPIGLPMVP

In assay [9] the target is Death-associated protein kinase 3 (Homo sapiens) (UniProt O43293).
Assay [10] deals with 5'-AMP-activated protein kinase catalytic subunit alpha-2 (Homo sapiens) (UniProt P54646).
In assay [11] the target is Serine/threonine-protein kinase 26 (Homo sapiens) (UniProt Q9P289).
The target in assay [12] is T2, Lymphokine-activated killer T-cell-originated protein kinase (Homo sapiens) (UniProt Q96KB5).
T2 sequence (whole entry): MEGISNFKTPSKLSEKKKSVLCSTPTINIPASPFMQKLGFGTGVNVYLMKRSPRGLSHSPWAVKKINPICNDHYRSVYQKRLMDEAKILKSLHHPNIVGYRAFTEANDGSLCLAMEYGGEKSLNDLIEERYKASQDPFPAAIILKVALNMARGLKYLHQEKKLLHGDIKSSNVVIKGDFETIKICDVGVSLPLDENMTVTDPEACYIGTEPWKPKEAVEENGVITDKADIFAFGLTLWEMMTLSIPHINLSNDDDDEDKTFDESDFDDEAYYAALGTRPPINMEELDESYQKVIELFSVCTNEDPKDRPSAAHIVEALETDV

Assay [13] has as its target T3, Dual specificity mitogen-activated protein kinase kinase 6 (Homo sapiens) (UniProt P52564).
T3 sequence (whole entry): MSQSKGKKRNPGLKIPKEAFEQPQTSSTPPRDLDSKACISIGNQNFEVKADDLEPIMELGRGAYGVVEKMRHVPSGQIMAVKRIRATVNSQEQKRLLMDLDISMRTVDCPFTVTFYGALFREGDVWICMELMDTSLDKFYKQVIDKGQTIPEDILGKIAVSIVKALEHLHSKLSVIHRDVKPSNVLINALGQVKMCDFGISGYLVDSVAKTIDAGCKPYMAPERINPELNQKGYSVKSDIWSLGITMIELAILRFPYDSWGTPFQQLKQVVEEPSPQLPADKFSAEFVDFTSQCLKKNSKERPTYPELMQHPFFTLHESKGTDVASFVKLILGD

Assay [14] has as its target Serine/threonine-protein kinase 25 (Homo sapiens) (UniProt O00506).
In assay [15] the target is T4, Calcium/calmodulin-dependent protein kinase type IV (Homo sapiens) (UniProt Q16566).
T4 sequence (whole entry): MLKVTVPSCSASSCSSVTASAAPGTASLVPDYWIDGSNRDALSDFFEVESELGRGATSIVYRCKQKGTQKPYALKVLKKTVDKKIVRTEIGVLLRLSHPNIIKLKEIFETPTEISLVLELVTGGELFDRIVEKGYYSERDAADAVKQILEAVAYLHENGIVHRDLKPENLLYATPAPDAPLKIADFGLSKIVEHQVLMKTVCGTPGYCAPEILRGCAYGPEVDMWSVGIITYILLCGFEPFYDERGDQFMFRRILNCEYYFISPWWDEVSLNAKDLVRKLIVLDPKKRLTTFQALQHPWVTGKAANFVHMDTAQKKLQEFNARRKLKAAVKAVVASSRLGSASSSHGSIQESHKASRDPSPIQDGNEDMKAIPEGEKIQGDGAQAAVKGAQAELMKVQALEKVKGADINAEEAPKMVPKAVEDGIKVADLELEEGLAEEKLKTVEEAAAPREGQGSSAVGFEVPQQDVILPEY

For assay [16], the target named is Ribosomal protein S6 kinase alpha-3 (Homo sapiens) (UniProt P51812).
In assay [17] the target is Cyclin-dependent kinase 16 (Homo sapiens) (UniProt Q00536).
In assay [18] the target is Serine/threonine-protein kinase Nek6 (Homo sapiens) (UniProt Q9HC98).
Assay [19] has as its target Calcium/calmodulin-dependent protein kinase type 1G (Homo sapiens) (UniProt Q96NX5).
Assay [20] deals with Calcium/calmodulin-dependent protein kinase type II subunit delta (Homo sapiens) (UniProt Q13557).
Assay [21] deals with Calcium/calmodulin-dependent protein kinase type 1D (Homo sapiens) (UniProt Q8IU85).
Chain of Calcium/calmodulin-dependent protein kinase type 1D (Homo sapiens) (Q8IU85 whole entry, looked up): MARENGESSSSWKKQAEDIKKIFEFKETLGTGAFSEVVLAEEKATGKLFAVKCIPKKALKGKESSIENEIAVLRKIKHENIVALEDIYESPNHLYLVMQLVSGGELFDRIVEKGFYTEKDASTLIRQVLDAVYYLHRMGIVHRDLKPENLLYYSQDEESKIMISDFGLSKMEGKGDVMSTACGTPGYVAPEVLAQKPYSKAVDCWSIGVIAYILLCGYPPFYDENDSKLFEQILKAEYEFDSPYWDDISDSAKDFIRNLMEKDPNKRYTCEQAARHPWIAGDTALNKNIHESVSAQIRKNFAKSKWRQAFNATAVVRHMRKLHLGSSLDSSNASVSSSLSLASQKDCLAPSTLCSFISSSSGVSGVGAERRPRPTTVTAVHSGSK

Chain of Serine/threonine-protein kinase 25 (Homo sapiens) (O00506 whole entry, looked up): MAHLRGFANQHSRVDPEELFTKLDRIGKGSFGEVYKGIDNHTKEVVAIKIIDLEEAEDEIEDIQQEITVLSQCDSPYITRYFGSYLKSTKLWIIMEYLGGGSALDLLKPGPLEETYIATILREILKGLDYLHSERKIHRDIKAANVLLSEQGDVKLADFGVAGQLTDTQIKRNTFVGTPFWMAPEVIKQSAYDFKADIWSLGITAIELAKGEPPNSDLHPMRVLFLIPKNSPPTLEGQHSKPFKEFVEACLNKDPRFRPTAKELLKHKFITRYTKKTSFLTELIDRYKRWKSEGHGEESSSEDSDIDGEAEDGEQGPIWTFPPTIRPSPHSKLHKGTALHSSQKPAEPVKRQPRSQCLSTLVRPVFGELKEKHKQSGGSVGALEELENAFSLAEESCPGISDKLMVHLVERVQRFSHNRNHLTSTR
Chain of Calcium/calmodulin-dependent protein kinase kinase 2 (Q96RR4 2-588 limits assumed): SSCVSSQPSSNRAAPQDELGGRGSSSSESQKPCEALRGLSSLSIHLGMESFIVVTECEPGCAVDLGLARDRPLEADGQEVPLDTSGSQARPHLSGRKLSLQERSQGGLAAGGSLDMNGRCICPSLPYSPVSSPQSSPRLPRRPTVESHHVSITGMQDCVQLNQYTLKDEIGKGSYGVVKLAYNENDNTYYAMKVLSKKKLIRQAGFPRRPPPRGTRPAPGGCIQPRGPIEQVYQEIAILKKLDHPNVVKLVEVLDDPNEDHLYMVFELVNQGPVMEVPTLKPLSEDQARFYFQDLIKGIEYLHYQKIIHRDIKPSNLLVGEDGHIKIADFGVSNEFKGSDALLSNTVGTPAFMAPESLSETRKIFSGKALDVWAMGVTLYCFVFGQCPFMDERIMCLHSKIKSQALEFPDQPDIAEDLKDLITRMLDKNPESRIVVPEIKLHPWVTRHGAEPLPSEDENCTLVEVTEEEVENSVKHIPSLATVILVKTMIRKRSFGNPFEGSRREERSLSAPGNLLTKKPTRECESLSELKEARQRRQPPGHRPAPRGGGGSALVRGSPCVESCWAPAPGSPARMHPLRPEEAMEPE
Chain of Serine/threonine-protein kinase 26 (Homo sapiens) (Q9P289 2-416 limits assumed): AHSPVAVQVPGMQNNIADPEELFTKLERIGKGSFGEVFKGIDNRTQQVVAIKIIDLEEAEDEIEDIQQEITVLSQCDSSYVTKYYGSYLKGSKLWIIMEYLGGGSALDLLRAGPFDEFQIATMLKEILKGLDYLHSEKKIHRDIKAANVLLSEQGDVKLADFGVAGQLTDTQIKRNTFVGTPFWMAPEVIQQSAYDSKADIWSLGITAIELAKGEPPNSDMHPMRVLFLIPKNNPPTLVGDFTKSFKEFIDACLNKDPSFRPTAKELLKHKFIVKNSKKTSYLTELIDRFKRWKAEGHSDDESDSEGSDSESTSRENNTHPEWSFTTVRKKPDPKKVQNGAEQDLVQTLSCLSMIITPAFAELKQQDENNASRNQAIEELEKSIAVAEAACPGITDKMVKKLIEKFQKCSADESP
Chain of Mitogen-activated protein kinase 3 (P27361 whole entry): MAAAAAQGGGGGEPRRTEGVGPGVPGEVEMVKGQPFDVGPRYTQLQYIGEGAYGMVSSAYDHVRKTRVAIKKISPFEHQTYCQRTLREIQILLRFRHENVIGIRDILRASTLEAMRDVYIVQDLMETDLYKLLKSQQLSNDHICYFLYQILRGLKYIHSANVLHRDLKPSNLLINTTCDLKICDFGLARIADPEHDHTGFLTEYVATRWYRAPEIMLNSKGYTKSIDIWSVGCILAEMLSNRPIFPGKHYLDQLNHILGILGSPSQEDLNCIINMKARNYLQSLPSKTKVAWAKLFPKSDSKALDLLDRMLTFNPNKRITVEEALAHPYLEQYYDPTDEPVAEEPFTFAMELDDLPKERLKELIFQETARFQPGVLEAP
Chain of Ribosomal protein S6 kinase alpha-3 (Homo sapiens) (P51812 whole entry): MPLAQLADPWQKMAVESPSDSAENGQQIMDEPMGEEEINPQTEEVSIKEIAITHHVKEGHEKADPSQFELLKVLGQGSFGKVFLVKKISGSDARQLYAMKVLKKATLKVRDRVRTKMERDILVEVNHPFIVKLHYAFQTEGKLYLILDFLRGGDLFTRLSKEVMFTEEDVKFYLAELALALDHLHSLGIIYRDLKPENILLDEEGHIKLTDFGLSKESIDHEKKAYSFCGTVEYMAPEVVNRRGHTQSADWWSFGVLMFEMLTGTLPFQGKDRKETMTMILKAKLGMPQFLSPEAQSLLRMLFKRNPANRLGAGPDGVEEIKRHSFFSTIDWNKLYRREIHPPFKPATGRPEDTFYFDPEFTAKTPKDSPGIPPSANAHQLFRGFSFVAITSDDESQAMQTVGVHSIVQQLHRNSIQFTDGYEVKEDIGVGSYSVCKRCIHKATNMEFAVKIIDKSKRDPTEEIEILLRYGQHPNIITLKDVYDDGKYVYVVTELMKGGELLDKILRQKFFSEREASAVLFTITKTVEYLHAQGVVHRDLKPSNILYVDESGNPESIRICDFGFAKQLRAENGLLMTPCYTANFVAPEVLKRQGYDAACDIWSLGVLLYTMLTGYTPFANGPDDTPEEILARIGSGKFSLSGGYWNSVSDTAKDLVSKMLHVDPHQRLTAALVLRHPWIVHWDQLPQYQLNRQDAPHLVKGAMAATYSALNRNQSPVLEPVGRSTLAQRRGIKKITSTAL
Chain of Serine/threonine-protein kinase Nek6 (Homo sapiens) (Q9HC98 whole entry): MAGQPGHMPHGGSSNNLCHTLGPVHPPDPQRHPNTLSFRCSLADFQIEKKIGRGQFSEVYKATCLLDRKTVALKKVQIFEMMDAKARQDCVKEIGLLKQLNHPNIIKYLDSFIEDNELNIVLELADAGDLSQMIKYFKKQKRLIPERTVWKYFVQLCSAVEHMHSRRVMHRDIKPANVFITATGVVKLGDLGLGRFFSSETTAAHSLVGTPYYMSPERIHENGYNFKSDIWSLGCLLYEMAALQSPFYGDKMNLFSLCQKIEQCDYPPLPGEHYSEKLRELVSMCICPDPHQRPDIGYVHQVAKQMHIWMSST
Chain of Serine/threonine-protein kinase 38 (Homo sapiens) (Q15208 2-465 limits assumed): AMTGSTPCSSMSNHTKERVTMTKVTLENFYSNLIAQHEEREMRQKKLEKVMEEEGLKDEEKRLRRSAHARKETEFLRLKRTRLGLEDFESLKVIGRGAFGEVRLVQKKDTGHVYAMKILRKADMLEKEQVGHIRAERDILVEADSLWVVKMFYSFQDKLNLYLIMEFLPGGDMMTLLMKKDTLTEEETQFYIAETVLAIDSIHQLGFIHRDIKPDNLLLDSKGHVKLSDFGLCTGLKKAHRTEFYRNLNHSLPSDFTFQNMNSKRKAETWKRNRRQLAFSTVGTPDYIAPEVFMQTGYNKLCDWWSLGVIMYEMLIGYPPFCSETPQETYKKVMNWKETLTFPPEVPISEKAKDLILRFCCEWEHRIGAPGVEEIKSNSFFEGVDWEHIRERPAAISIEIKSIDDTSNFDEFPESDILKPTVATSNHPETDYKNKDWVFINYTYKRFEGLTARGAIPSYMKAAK
Chain of Death-associated protein kinase 3 (Homo sapiens) (O43293 whole entry, looked up): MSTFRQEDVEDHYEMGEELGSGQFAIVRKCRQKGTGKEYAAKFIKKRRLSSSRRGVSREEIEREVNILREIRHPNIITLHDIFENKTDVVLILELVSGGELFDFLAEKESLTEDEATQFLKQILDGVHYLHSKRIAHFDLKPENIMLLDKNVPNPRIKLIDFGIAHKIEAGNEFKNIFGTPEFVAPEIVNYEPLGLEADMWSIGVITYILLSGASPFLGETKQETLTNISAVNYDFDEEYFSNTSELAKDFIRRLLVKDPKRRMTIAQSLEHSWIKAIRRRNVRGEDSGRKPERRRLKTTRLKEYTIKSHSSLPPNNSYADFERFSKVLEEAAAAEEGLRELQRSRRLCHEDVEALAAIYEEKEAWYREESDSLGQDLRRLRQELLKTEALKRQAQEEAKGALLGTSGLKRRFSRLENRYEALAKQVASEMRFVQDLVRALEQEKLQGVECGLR
Chain of Dual specificity mitogen-activated protein kinase kinase 2 (P36507 whole entry): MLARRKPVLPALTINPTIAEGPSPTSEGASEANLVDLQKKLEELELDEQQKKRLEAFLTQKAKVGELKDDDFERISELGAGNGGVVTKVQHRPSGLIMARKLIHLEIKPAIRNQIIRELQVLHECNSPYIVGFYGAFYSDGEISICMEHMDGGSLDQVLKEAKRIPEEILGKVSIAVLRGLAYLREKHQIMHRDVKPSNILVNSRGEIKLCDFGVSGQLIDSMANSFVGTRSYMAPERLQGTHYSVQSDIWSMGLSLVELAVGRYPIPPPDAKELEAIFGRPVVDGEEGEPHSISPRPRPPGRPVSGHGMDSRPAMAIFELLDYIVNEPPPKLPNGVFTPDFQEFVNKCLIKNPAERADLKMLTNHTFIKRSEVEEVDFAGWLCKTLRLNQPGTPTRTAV

Turning to `COc1cc(/C=C/C(=O)CC(=O)/C=C/c2ccc(O)c(OC)c2)ccc1O` [CURCUMIN], the ΔTm came out at 2.5 °C in assay [1]; 6.1 °C in [2]; 2 °C in [3]; 0.3 °C in assay [4]; 2.8 °C in assay [5]; 0.8 °C in assay [6]. The ΔTm is 2.8 °C in assay [7]; 1.3 °C in [8]; 1.8 °C in assay [9]; -0.1 °C in [10]; 2.9 °C in [11]; 0.7 °C in [12]. In addition, the ΔTm in assay [13] is 4 °C; in [14], 4.4 °C; in [15], 2.1 °C; in assay [16], 3.4 °C; in assay [17] it was 0.7 °C; in assay [18], 0.9 °C. Besides, the ΔTm in assay [19] was determined as 1.3 °C; in [20], 0.1 °C; in assay [21], 2 °C.

Consider `NC1=N/C(=C2/CCNC(=O)c3[nH]ccc32)C(=O)N1` [DEBROMOHYMENIALDISINE], for which the ΔTm was 0.7 °C in assay [1]; 1.4 °C in [2]; 2.4 °C in [3]; 2.4 °C in assay [4]; 0.4 °C in assay [5]; 0.6 °C in assay [6]. For the same molecule, the ΔTm was -0.3 °C in assay [7]; 0.5 °C in assay [8]; 5.2 °C in assay [9]; -0.5 °C in assay [10]; 0.7 °C in assay [11]; -0.4 °C in assay [12]. For the same molecule, the ΔTm in assay [13] is 0.3 °C; in assay [14], 1.7 °C; in assay [15] it was 0 °C; in [16] it was 2.6 °C; in assay [17], 0 °C; in assay [18], -0.5 °C. For the same molecule, the ΔTm in assay [19] was 0.2 °C; in [20], 0.1 °C; in assay [21], 0 °C.

For `COc1cccc(-c2cc(=O)c3ccccc3o2)c1N`, the thermal shift (ΔTm) in assay [1] was 0.2 °C; in [2] it was -0.4 °C; in assay [3] it was 0.3 °C; in assay [4], 0.1 °C; in [5] it was 0.1 °C; in [6], 0 °C. Also, the ΔTm was 0.5 °C in [7]; 0.6 °C in assay [8]; -0.5 °C in assay [9]; -0.5 °C in assay [10]; -0.3 °C in assay [11]; 1.2 °C in assay [12]. The ΔTm in [13] is -0.1 °C; in assay [14] it was 0.5 °C; in assay [15], -0.1 °C; in [16], -0.1 °C; in assay [17], -0.2 °C; in assay [18], -0.1 °C. The ΔTm in [19] was -0.2 °C; in [20], 0.3 °C; in assay [21], -0.1 °C.

In the case of `C[S+]([O-])c1ccc(CSc2nc(-c3ccc(F)cc3)c(-c3ccncc3)[nH]2)cc1` (configuration not stated), the ΔTm in [1] is 0.4 °C; in [2] it was 0.9 °C; in [3], -0.2 °C; in assay [4] it was -0.1 °C; in assay [5], -0.4 °C; in assay [6], 0.3 °C. Moreover, the ΔTm was 0.2 °C in assay [7]; -0.8 °C in assay [8]; 0.4 °C in assay [9]; -0.3 °C in assay [10]; 0 °C in assay [11]; 0.5 °C in [12]. Moreover, the ΔTm was 0.1 °C in [13]; 0.6 °C in assay [14]; 0 °C in [15]; 0.1 °C in [16]; -0.7 °C in [17]; -0.2 °C in assay [18]. Further, the ΔTm in assay [19], in assay [20] and in assay [21] was 0 °C each time.

Regarding `CC(C)(C)n1nc(-c2ccc(Cl)cc2)c2c(N)ncnc21`, the ΔTm in [1] was found to be 0.7 °C; in [2], 1 °C; in assay [3], 0.9 °C; in assay [4], 0.6 °C; in assay [5] it was 3.3 °C; in assay [6], 0 °C. Also, the ΔTm is 3.1 °C in assay [7]; -0.2 °C in assay [8]; -1.1 °C in assay [9]; 0.7 °C in [10]; -0.3 °C in [11]; 0.7 °C in assay [12]. Further, the ΔTm in [13] was 2.1 °C; in assay [14], 1.2 °C; in assay [15], 0 °C; in [16], 2.1 °C; in assay [17], -0.5 °C; in assay [18], 0.2 °C. The ΔTm in assay [19] is 0 °C; in assay [20], -0.1 °C; in assay [21] it was -0.2 °C.

As for `C[S+]([O-])c1ccc(-c2nc(-c3ccc(F)cc3)c(-c3ccncc3)[nH]2)cc1` (configuration not stated) [SB-203580], the ΔTm in assay [1] is 0.2 °C; in assay [2] it was 0 °C; in [3], 0.2 °C; in assay [4], 0.4 °C; in [5] it was 0.2 °C; in assay [6] it was 0.1 °C. The ΔTm in assay [7] was -0.2 °C; in [8] it was 0 °C; in [9] it was -0.4 °C; in assay [10], -0.9 °C; in assay [11], -0.4 °C; in assay [12] it was 0.2 °C. Further, the ΔTm in [13] was -0.1 °C; in assay [14], 0.9 °C; in assay [15] it was 0 °C; in assay [16] it was 0.3 °C; in assay [17], -0.8 °C; in assay [18], 0.2 °C. The ΔTm in [19] was -0.2 °C; in assay [20], -0.3 °C; in assay [21], -0.2 °C.

Take `CN(C)S(=O)(=O)c1ccc2c(c1)/C(=C/c1cc3c([nH]1)CCCC3)C(=O)N2`: the ΔTm in assay [1] worked out at 2.2 °C; in [2], 7.6 °C; in [3], 0.1 °C; in assay [4], 0.6 °C; in [5], 7 °C; in assay [6], 0.8 °C. Also, the ΔTm was -6.4 °C in [7]; 1.5 °C in [8]; 0.3 °C in assay [9]; 6.7 °C in assay [10]; 1 °C in assay [11]; 1 °C in assay [12]. Further, the ΔTm came out at 0.3 °C in assay [13]; 5.3 °C in [14]; 2.6 °C in [15]; 7.5 °C in assay [16]; 0.1 °C in [17]; 0.8 °C in [18]. Further, the ΔTm in assay [19] was 0.2 °C; in assay [20], 3.2 °C; in assay [21] it was 1.4 °C.
